In ChEMBL document CHEMBL1151392, “Structure-activity relations of polyfunctional diterpenes of the daphnane type. I. Revised structure for resiniferatoxin and structure-activity relations of resiniferonol and some of its esters” (J Nat Prod, 1982):

What was measured:
[1] = species on record: Mus musculus; experiment: Toxicity in NMRI mouse assessed as irritant dose 50 causing ear redness after 24 hours assessed per ear; assay type: organism-based; details: in vivo
[2] = species on record: Mus musculus; experiment: Toxicity in NMRI mouse assessed as irritant dose 50 causing ear redness after 5 hours assessed per ear; assay type: organism-based; details: in vivo, topical_or_ocular

C=C(C)[C@]12C[C@@H](C)[C@@]34O[C@](C)(O[C@@H]1[C@@H]3C=C(COC(=O)Cc1cc(OC)cc(OC)c1)C[C@]1(O)C(=O)C(C)=C[C@@H]41)O2
Activity [1]: > 5 nmol | Activity [2]: 2.6 ×10⁻² nmol

C=C(C)[C@]12C[C@@H](C)[C@@]34O[C@](Cc5ccccc5)(O[C@@H]1[C@@H]3C=C(COC(=O)c1ccccc1)C[C@]1(O)C(=O)C(C)=C[C@@H]41)O2
Activity [1]: > 10 nmol | Activity [2]: 1.2 ×10⁻² nmol

C=C(C)[C@]12C[C@@H](C)[C@@]34O[C@](CCCCCCCCCCCCC)(O[C@@H]1[C@@H]3C=C(COC(=O)CCCCCCCCCCCCC)C[C@]1(O)C(=O)C(C)=C[C@@H]41)O2
Activity [1]: > 60 nmol | Activity [2]: > 60 nmol

C=C(C)[C@]12C[C@@H](C)[C@@]34O[C@](Cc5ccccc5)(O[C@@H]1[C@@H]3C=C(CO)C[C@]1(O)C(=O)C(C)=C[C@@H]41)O2
Activity [1]: > 20 nmol | Activity [2]: 1 nmol

C=C(C)[C@]1(O)C[C@@H](C)[C@@]2(O)[C@@H](C=C(CO)C[C@]3(O)C(=O)C(C)=C[C@@H]23)[C@H]1O [RESINIFERONOL]
Activity [1]: > 100 nmol | Activity [2]: > 100 nmol

C=C(C)[C@]12C[C@@H](C)[C@@]34O[C@](Cc5ccccc5)(O[C@@H]1[C@@H]3C=C(COC(=O)Cc1cc(OC)cc(OC)c1)C[C@]1(O)C(=O)C(C)=C[C@@H]41)O2
Activity [1]: > 20 nmol | Activity [2]: 6.2 ×10⁻⁴ nmol

C=C(C)[C@]12C[C@@H](C)[C@@]34O[C@](CCCCCCCCCCCCC)(O[C@@H]1[C@@H]3C=C(CO)C[C@]1(O)C(=O)C(C)=C[C@@H]41)O2
Activity [1]: 0.8 nmol | Activity [2]: > 30 nmol

C=C(C)[C@]1(O)C[C@@H](C)[C@@]2(O)[C@@H](C=C(COC(=O)Cc3ccccc3)C[C@]3(O)C(=O)C(C)=C[C@@H]23)[C@H]1O
Activity [1]: > 100 nmol | Activity [2]: > 100 nmol

C=C(C)[C@]12C[C@@H](C)[C@@]34O[C@](Cc5ccccc5)(O[C@@H]1[C@@H]3C=C(COC(=O)Cc1ccc(O)c(OC)c1)C[C@]1(O)C(=O)C(C)=C[C@@H]41)O2 [RESINIFERATOXIN]
Activity [1]: > 20 nmol | Activity [2]: 1.6 ×10⁻⁵ nmol

COC(=O)Cc1ccc(O)c(OC)c1
Activity [1]: > 100 nmol | Activity [2]: 25 nmol

C=C(C)[C@]12C[C@@H](C)[C@@]34O[C@](C)(O[C@@H]1[C@@H]3C=C(CO)C[C@]1(O)C(=O)C(C)=C[C@@H]41)O2
Activity [1]: 12.9 nmol | Activity [2]: > 100 nmol

C=C(C)[C@]12C[C@@H](C)[C@@]34O[C@](Cc5ccccc5)(O[C@@H]1[C@@H]3C=C(COC(=O)Cc1ccc(OC)c(OC)c1)C[C@]1(O)C(=O)C(C)=C[C@@H]41)O2 [RESINIFERATOXIN METHYL ETHER]
Activity [1]: > 20 nmol | Activity [2]: 4.7 ×10⁻⁴ nmol

C=C(C)[C@]12C[C@@H](C)[C@@]34O[C@](Cc5ccccc5)(O[C@@H]1[C@@H]3C=C(COC(C)=O)C[C@]1(O)C(=O)C(C)=C[C@@H]41)O2
Activity [1]: > 10 nmol | Activity [2]: > 10 nmol

C=C(C)[C@]12C[C@@H](C)[C@@]34O[C@](CCCCCCCCCCCCC)(O[C@@H]1[C@@H]3C=C(COC(=O)Cc1cc(OC)cc(OC)c1)C[C@]1(O)C(=O)C(C)=C[C@@H]41)O2
Activity [1]: > 5 nmol | Activity [2]: > 5 nmol

C=C(C)[C@]12C[C@@H](C)[C@@]34O[C@](Cc5ccccc5)(O[C@@H]1[C@@H]3C=C(COC(=O)Cc1ccccc1)C[C@]1(O)C(=O)C(C)=C[C@@H]41)O2
Activity [1]: > 10 nmol | Activity [2]: 1.7 ×10⁻³ nmol

C=C(C)[C@]12C[C@@H](C)[C@@]34O[C@](Cc5ccccc5)(O[C@@H]1[C@@H]3C=C(COC(=O)CCCCC)C[C@]1(O)C(=O)C(C)=C[C@@H]41)O2
Activity [1]: > 10 nmol | Activity [2]: 8.9 ×10⁻² nmol
